Measurements taken from patent US10123995B2, “Factor XIa inhibitors” (MERCK SHARP & DOHME CORP., priority 2015, dated 2018).

Columns and labels:
[1] = biological target: purified Human plasma kallikrein (Homo sapiens (Human), UniProt P03952); experiment: Kallikrein Assay; format: biochemical; settings: table titled Kalikrein inhibition (column head prints hFXIa), substrate Acetyl-K-P-R-AFC, pH 7.4
Description: (§1) The effectiveness of a compound of the present invention as an inhibitor of Kallikrein can be determined using a relevant purified serine protease, and an appropriate synthetic substrate. The rate of hydrolysis of the chromogenic or fluorogenic substrate by the relevant serine protease was measured both in the absence and presence of compounds of the present invention. Assays were conducted at room temperature or at 37° C. […] A decrease in the rate of fluorescence change in the presence of inhibitor is indicative of enzyme inhibition. Such methods are known to one skilled in the art. The results of this assay are expressed as the inhibitory constant, Ki.
Kallikrein determinations were made in 50 mM HEPES buffer at pH 7.4 containing 150 mM NaCl, 5 mM CaCl2, and 0.1% PEG 8000 (polyethylene glycol; Fisher Scientific). Determinations were made using purified Human plasma kallikrein at a final concentration of 0.5 nM (Enzyme Research Laboratories) and the synthetic substrate, Acetyl-K-P-R-AFC (Sigma # C6608) at a concentration of […].
Activity assays were performed by diluting a stock solution of substrate at least tenfold to a final concentration ≤0.2 Km into a solution containing enzyme or enzyme equilibrated with inhibitor. Times required to achieve equilibration between enzyme and inhibitor were determined in control experiments. The reactions were performed under linear progress curve conditions and fluorescence increase measured at 405 Ex/510 Em nm. Values were converted to percent inhibition of the control reaction (after subtracting 100% Inhibition value). IC50 was determined by inflection point from a four parameter logistic curve fit. Ki was calculated using the Cheng Prusoff equation, Ki=IC50/(1+([S]/Km)).

[2] = biological target: purified human Factor XIa (Homo sapiens (Human), UniProt P03951); experiment: Factor XIa Assay; format: biochemical; settings: Factor XIa inhibition; substrate Z-Gly-Pro-Arg-AFC, pH 7.4; read-out: hFXIa IC50
Sequence of purified human Factor XIa (P03951 388-625): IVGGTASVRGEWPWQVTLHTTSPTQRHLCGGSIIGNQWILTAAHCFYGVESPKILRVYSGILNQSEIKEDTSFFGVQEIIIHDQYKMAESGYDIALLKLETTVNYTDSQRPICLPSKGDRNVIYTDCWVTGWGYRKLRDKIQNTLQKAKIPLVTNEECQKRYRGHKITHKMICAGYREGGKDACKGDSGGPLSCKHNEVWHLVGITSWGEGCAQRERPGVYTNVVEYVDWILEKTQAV
Sequence of purified human Factor XIa (P03951 19-387 partner): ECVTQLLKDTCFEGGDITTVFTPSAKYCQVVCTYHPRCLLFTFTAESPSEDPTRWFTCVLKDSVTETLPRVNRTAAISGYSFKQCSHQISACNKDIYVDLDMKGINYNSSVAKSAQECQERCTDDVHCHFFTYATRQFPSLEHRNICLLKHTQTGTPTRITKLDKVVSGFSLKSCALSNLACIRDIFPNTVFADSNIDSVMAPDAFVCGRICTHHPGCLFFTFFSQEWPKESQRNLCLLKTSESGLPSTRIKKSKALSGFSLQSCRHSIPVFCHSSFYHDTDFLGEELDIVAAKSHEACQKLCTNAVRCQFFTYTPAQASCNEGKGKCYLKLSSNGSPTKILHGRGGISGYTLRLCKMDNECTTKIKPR
Description: as §1, with “Coagulation Factor XIa” for “Kallikrein”, “The results of this assay are expressed as the inhibitory constant, Ki.” left out
Factor XIa determinations were made in 50 mM HEPES buffer at pH 7.4 containing 150 mM NaCl, 5 mM CaCl2, and 0.1% PEG 8000 (polyethylene glycol; JT Baker or Fisher Scientific). Determinations were made using purified human Factor XIa at a final concentration of 40 pM (Sekisui Diagnostics) and the synthetic substrate, Z-Gly-Pro-Arg-AFC, TFA salt (Sigma #C0980) at a concentration of 100 μM.
Activity assays were performed by diluting a stock solution of substrate at least tenfold to a final concentration ≤0.1 Km into a solution containing enzyme or enzyme equilibrated with inhibitor. Times required to achieve equilibration between enzyme and inhibitor were determined in control experiments. Initial velocities of product formation in the absence (Vo) or presence of inhibitor (Vi) were measured. Assuming competitive inhibition, and that unity is negligible compared Km/[S], [I]/e, and [I]/e (where [S], [I], and e respectively represent the total concentrations, of substrate, inhibitor and enzyme), the equilibrium constant (Ki) for dissociation of the inhibitor from the enzyme can be obtained from the dependence of Vo/Vi on [I] shown in the following equation. Vo/Vi=1+[I]/Ki

Sequence of purified Human plasma kallikrein (P03952 391-638): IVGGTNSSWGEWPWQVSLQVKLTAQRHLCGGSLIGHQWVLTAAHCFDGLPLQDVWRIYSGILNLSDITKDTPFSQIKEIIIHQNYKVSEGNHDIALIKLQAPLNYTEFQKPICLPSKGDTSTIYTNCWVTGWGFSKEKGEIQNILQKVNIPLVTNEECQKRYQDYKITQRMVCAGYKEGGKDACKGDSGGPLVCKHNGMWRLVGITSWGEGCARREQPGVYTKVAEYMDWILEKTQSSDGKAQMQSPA
Sequence of purified Human plasma kallikrein (P03952 20-390 partner): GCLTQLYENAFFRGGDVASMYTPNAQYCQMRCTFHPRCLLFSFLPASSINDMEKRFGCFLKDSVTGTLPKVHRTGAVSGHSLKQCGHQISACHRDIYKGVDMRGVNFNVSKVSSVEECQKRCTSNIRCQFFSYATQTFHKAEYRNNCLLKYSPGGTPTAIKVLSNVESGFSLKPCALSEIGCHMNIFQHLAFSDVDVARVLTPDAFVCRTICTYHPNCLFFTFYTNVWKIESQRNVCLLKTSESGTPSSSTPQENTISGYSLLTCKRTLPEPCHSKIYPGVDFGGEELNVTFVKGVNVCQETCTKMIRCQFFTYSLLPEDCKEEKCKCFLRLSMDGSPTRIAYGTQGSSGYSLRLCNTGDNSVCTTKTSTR

Structure (SMILES) | IC50 [1] | IC50 [2]
O=C(O)c1ccc(NC(=O)C2CC(O)c3cc(-c4cc(Cl)ccc4-n4cnnn4)c[n+]([O-])c32)cc1 (single isomer, unassigned) [Example 7] | 1720 nM | 8.6 nM
O=C(O)c1ccc(NC(=O)C2(F)CC(F)c3cc(-c4cc(Cl)ccc4-n4cnnn4)c[n+]([O-])c32)cc1 (single isomer, unassigned) [Example 15, 4-[({3-[5-Chloro-2-(1H-tetrazol-1-yl)phenyl]-5,7-difluoro-1-oxido-6,7-dihydro-5H-cyclopenta[b]pyridin-7-yl}carbonyl)amino]benzoic acid] | 4920 nM | 14.1 nM
O=C(O)c1ccc(NC(=O)C2(F)CC(F)c3cc(-c4cc(Cl)ccc4-n4cnnn4)c[n+]([O-])c32)cc1 (single isomer, unassigned) [Example 16, 4-[({3-[5-Chloro-2-(1H-tetrazol-1-yl)phenyl]-5,7-difluoro-1-oxido-6,7-dihydro-5H-cyclopenta[b]pyridin-7-yl}carbonyl)amino]benzoic acid] | – | 85.6 nM
O=C(O)c1ccc(NC(=O)C2CCc3cc(-c4cc(Cl)ccc4-n4cnnn4)c[n+]([O-])c32)cc1 (stereo not drawn) [Example 1, 4-[({3-[5-chloro-2-(1H-tetrazol-1-yl)phenyl]-1-oxido-6,7-dihydro-5H-cyclopenta[b]pyridin-7-yl}carbonyl)amino]benzoic acid] | 473 nM | 3.8 nM
O=C(O)c1ccc(NC(=O)C2(O)CC(O)c3cc(-c4cc(Cl)ccc4-n4cnnn4)c[n+]([O-])c32)cc1 (single isomer, unassigned) [Example 10, 4-[({3-[5-Chloro-2-(1H-tetrazol-1-yl)phenyl]-5,7-dihydroxy-1-oxido-6,7-dihydro-5H-cyclopenta[b]pyridin-7-yl}carbonyl)amino]benzoic acid] | 530 nM | 2.7 nM
O=C(O)c1ccc(NC(=O)C2(O)CCc3cc(-c4cc(Cl)ccc4-n4cnnn4)c[n+]([O-])c32)cc1 (stereo not drawn) [Example 19, 4-[({3-[5-Chloro-2-(1H-tetrazol-1-yl)phenyl]-7-hydroxy-1-oxido-6,7-dihydro-5H-cyclopenta[b]pyridin-7-yl}carbonyl)amino]benzoic acid] | 1370 nM | 6 nM
O=C(NC12CCC(C(=O)O)(CC1)CC2)C1CCc2cc(-c3cc(Cl)ccc3-n3cnnn3)c[n+]([O-])c21 (stereo not drawn) [Example 2, 7-((4-carboxybicyclo[2.2.2]octan-1-yl)carbamoyl)-3-(5-chloro-2-(1H-tetrazol-1-yl)phenyl)-6,7-dihydro-5H-cyclopenta[b]pyridine=1-oxide] | – | 2000 nM
O=C(O)c1ccc(NC(=O)C2CC(O)c3cc(-c4cc(Cl)ccc4-n4cnnn4)c[n+]([O-])c32)cc1 (racemic) [Example 6, 4-[({3-[5-chloro-2-(1H-tetrazol-1-yl)phenyl]-5-hydroxy-1-oxido-6,7-dihydro-5H-cyclopenta[b]pyridin-7-yl}carbonyl)amino]benzoic acid] | 700 nM | 10.5 nM
O=C(O)c1ccc(NC(=O)C2(CC3CC3)CCc3cc(-c4cc(Cl)ccc4-n4cnnn4)c[n+]([O-])c32)cc1 (single isomer, unassigned) [Example 21, 7-((4-carboxyphenyl)carbamoyl)-3-(5-chloro-2-(1H-tetrazol-1-yl)phenyl)-7-(cyclopropylmethyl)-6,7-dihydro-5H-cyclopenta[b]pyridine 1-oxide] | – | > 870 nM
O=C(O)c1ccc(NC(=O)C2(F)CC(F)c3cc(-c4cc(Cl)ccc4-n4cnnn4)c[n+]([O-])c32)cc1 (single isomer, unassigned) [Example 18, 4-[({3-[5-Chloro-2-(1H-tetrazol-1-yl)phenyl]-5,7-difluoro-1-oxido-6,7-dihydro-5H-cyclopenta[b]pyridin-7-yl}carbonyl)amino]benzoic acid] | – | 9450 nM
O=C(O)c1ccc(NC(=O)C2CC(O)c3cc(-c4cc(Cl)ccc4-n4cnnn4)c[n+]([O-])c32)cc1 (single isomer, unassigned) [Example 5] | 504 nM | 3.6 nM
O=C(O)c1ccc(NC(=O)C2(O)CC(O)c3cc(-c4cc(Cl)ccc4-n4cnnn4)c[n+]([O-])c32)cc1 (single isomer, unassigned) [Example 11, 4-[({3-[5-Chloro-2-(1H-tetrazol-1-yl)phenyl]-5,7-dihydroxy-1-oxido-6,7-dihydro-5H-cyclopenta[b]pyridin-7-yl}carbonyl)amino]benzoic acid] | – | 104 nM
O=C(O)c1ccc(NC(=O)C2(F)CC(F)c3cc(-c4cc(Cl)ccc4-n4cnnn4)c[n+]([O-])c32)cc1 (single isomer, unassigned) [Example 17, 4-[({3-[5-Chloro-2-(1H-tetrazol-1-yl)phenyl]-5,7-difluoro-1-oxido-6,7-dihydro-5H-cyclopenta[b]pyridin-7-yl}carbonyl)amino]benzoic acid] | – | 4440 nM
COC(=O)Nc1ccc(C(=O)NC2CCc3cc(-c4cc(Cl)ccc4-n4cnnn4)c[n+]([O-])c32)cc1 (stereo not drawn) [Example 20, 3-(5-Chloro-2-(H-tetrazol-1-yl)phenyl)-7-(4-((methoxycarbonyl)amino)benzamido)-6,7-dihydro-5H-cyclopenta[b]pyridine 1-oxide] | – | 894 nM
O=C(O)c1ccc(NC(=O)C2(O)CC(F)c3cc(-c4cc(Cl)ccc4-n4cnnn4)c[n+]([O-])c32)cc1 (single isomer, unassigned) [Example 13, 4-[({3-[5-Chloro-2-(1H-tetrazol-1-yl)phenyl]-5-fluoro-7-hydroxy-1-oxido-6,7-dihydro-5H-cyclopenta[b]pyridin-7-yl}carbonyl)amino]benzoic acid] | 202 nM | 3.7 nM
O=C(O)c1ccc(NC(=O)[C@@H]2CCc3cc(-c4c(F)ccc(Cl)c4F)c[n+]([O-])c32)cc1 [Example 4, 4-({[(7R)-3-(3-chloro-2,6-difluorophenyl)-1-oxido-6,7-dihydro-5H-cyclopenta[b]pyridin-7-yl]carbonyl}amino)benzoic acid] | – | 2370 nM
O=C(O)c1ccc(NC(=O)C2(O)CC(F)c3cc(-c4cc(Cl)ccc4-n4cnnn4)c[n+]([O-])c32)cc1 (single isomer, unassigned) [Example 14, 4-[({3-[5-Chloro-2-(1H-tetrazol-1-yl)phenyl]-5-fluoro-7-hydroxy-1-oxido-6,7-dihydro-5H-cyclopenta[b]pyridin-7-yl}carbonyl)amino]benzoic acid] | – | 219 nM
O=C(O)c1ccc(NC(=O)C2(O)CC(O)c3cc(-c4cc(Cl)ccc4-n4cnnn4)c[n+]([O-])c32)cc1 (stereo not drawn) [Example 8, 4-[({3-[5-Chloro-2-(1H-tetrazol-1-yl)phenyl]-5,7-dihydroxy-1-oxido-6,7-dihydro-5H-cyclopenta[b]pyridin-7-yl}carbonyl)amino]benzoic acid] | 816 nM | 4.2 nM
O=C(O)c1ccc(NC(=O)C2(CC3CC3)CCc3cc(-c4cc(Cl)ccc4-n4cnnn4)c[n+]([O-])c32)cc1 (single isomer, unassigned) [Example 22, 7-((4-carboxyphenyl)carbamoyl)-3-(5-chloro-2-(1H-tetrazol-1-yl)phenyl)-7-(cyclopropylmethyl)-6,7-dihydro-5H-cyclopenta[b]pyridine 1-oxide] | – | 178 nM
O=C(O)c1ccc(NC(=O)C2(O)CC(O)c3cc(-c4cc(Cl)ccc4-n4cnnn4)c[n+]([O-])c32)cc1 (single isomer, unassigned) [Example 12, 4-[({3-[5-Chloro-2-(1H-tetrazol-1-yl)phenyl]-5,7-dihydroxy-1-oxido-6,7-dihydro-5H-cyclopenta[b]pyridin-7-yl}carbonyl)amino]benzoic acid] | – | 202 nM
O=C(O)c1ccc(NC(=O)[C@H]2CCc3cc(-c4c(F)ccc(Cl)c4F)c[n+]([O-])c32)cc1 [Example 3, 4-({[(7S)-3-(3-chloro-2,6-difluorophenyl)-1-oxido-6,7-dihydro-5H-cyclopenta[b]pyridin-b7-yl]carbonyl}amino)benzoic acid] | – | 2920 nM
